In patent publication US5670526A, “1,3,4-oxadiazoles” (Otsuka Pharmaceutical Co., Ltd., priority 1995, dated 1997):

How the values were obtained:
VCAM = test: ELISA for cell surface molecules: inhibition of VCAM expression on IL-1β stimulated HUVEC's; format: cell-based; conditions: Homo sapiens; for inhibition at 3 µg/mL: @ 3 μg/ml; for inhibition at 1 µg/mL: @ 1 μg/mL
Description: (§1) The following were used in an ELISA for cell surface molecules: Costar 96-well TC plates, 2% gelatin, 1% BSA-Dulbecco's PBS w/CaMg^++, IL-1β, primary antibody e.g., 7A9 for ELAM (EP 505749) secondary biotinylated goat anti-mouse IgG/IgM, streptavidin-peroxidase, OPD substrate tablets and 30% hydrogen peroxide.
(§2) To begin, 96-well plates were coated with 2% gelatin (1 hour). The excess gelatin was aspirated from the wells. HUVEC's were seeded at 20,000 cells/well in a 200 μl volume.
(§3) Prior to assay, the test compounds were dissolved in DMSO at a stock concentration of 3 mg/ml. The stock solutions were set at room temperature and observed to see if dissolution was complete. When monolayers reached confluence (24-28 hours after seeding) the test compounds were added to the wells at final concentrations of 10 μg/ml, 3 μg/ml and 1 μg/ml. The plates were incubated for 1 hour at 37° C. Then, IL-1β at a final concentration of 1 μg/ml was added and the plates incubated for 4 hours at 37° C. The supernatant was removed from the plates by flicking into a sink. The wells were washed 3× with 1% BSA-Dulbecco's PBS.
(§4) Primary antibody (7A9 for ELAM or a suitable antibody for VCAM or ICAM) at a concentration of 2.5 μg/ml in a 50 μl volume was added to each well. The plates were incubated at 4° C. for 45 minutes to 1 hour. The wells were washed 3× with 1% BSA Dulbecco's PBS. Secondary antibody (biotinylated goat anti-mouse IgG-IgM, commercially available) at 50 μl/well at a final dilution of 1:1,000 was added to the well and the plates were incubated for 45 minutes to 1 hour at 4° C. The wells were washed 3× with 1% BSA-Dulbecco's PBS.
(§5) Streptavidin-peroxidase at 50 μl/well with a final dilution of 1:3,000 was added to each well and the plates were incubated at 4° C. for 30 minutes. Again the plates were washed 3× with 1% BSA-Dulbecco's PBS.
(§6) Substrate solution (OPD tablets, citric acid buffer and hydrogen peroxide solution) was prepared and added at 100 μl/well. The plates were incubated 15 minutes at room temperature on a plate shaker and the reaction was stopped with 12.5% sulfuric acid. Plates were read for absorbance values at 492 nm.
(§7) The degree of inhibition in expression of ELAM or VCAM by a compound of the instant invention is manifest as a decrease in specific primary antibody binding. In the following table the IC50 values are provided using a representative sampling of compounds of the instant invention.

Neutrophil migration = test: Immune complex (BSA/anti-BSA) induced neutrophil migration into mouse skin, myeloperoxidase (MPO) assay; format: in vivo, C57BL/6 mouse; conditions: Mus musculus, Neutrophil; 12.5 mg of drug/site, i.d., 4 hours
Description: Neutrophil migration and infiltration into tissue spaces and the effect thereon of the compounds of the instant compounds can be tested. For example, immune complexes can be developed at a subcutaneous or intradermal site to draw neutrophils and the effect of the instant compounds on neutrophil migration can be assessed. A protocol is as follows. Mice are injected IV with bovine serum albumin (BSA). Then the mice are injected intradermally with antibody to BSA. For experimental animals, the test substance is administered concurrently intradermally or subcutaneously at the site of antibody deposition. After about four hours, the animal is sacrificed, the skin at the injection site is removed and then treated appropriately, such as assaying for myeloperoxidase, to determine the extent of neutrophil migration to the injection site.
An i.v. injection of 100 μl of BSA at 10 mg/ml in saline was followed by a 25 μl injection of anti-BSA i.d. on the back side of a pre-shaven C57BL/6 mouse. At time 0, along with the BSA and anti-BSA, the test compound or vehicle was administered i.d. at the site of the antibody injection in a volume of 25 μl (for example, 0.5 mg/μl solution). Four hours post injection, the skin was removed and a myeloperoxidase (MPO) assay performed (Mulligan et al., J. Imm. 151(10): 5666-5674, 1993).
Briefly, the skin sample was placed in a 17×100 mm test tube containing 2 ml of ice cold buffer (PBS, pH 7.4). The sample was ground for 30 seconds and placed on ice. The sample was vortexed for 10 seconds and then sonicated for three minutes in iced water. The sample was frozen in dry ice for 30 minutes. The sample then was thawed rapidly in a water bath for 10 minutes. An aliquot of 1.5 ml was removed and placed in a microfuge tube. The sample was spun at high speed in a cold room for 15 minutes. The sample then was titrated across the wells in a microtiter plate with the first well containing a 1:3 dilution of sample, for example, 50 μl of sample and 150 μl of buffer. Substrate and hydrogen peroxide were added to each well. Following a suitable incubation period, sodium azide was added to the wells and the absorbance monitored in a spectrophotometer at 460 nm. […]

ELAM = test: ELISA for cell surface molecules: inhibition of ELAM expression on IL-1β stimulated HUVEC's; format: cell-based; conditions: Homo sapiens; for inhibition at 1 µg/mL: @ 1 μg/mL
Description: as §1, §2, §3, §4, §5, §6, §7

[1] = tested on: Concanavalin A (ConA)-induced liver injury; test: Concanavalin A (ConA)-induced liver injury in mice, serum SGOT; format: in vivo, C57BL/6 mice; conditions: Mus musculus, ip; 50 mg/kg i.p.; ConA 15 mg/kg i.v., 17 hours; read-out: SGOT (% decrease)
Description: The following protocol was used for the Concanavalin A (ConA)-induced liver injury in mice. C57BL/6 mice were used. A solution of ConA (Sigma)in PBS was prepared at a concentration of 1.5 mg/ml. The mice were administered, i.p., with […] of a 10% DMSO solution containing varying amounts (adjusted to give 25 mg/kg to 50 mg/kg of compound) of the representative compounds of interest. Fifteen minutes later, the mice were treated via the tail vein with 15 mg/kg of ConA in PBS along with […] of 10% DMSO solution.
The mice were sacrificed after 17 hours and the blood collected into small conical tubes. The tubes were centrifuged and the serum collected and assayed for serum glutamic oxaloacetic transaminase (SGOT) (Sigma GOT kit). The high level enzyme standard (Sigma) was used to make the standard curve, as 100(undiluted), 50, 25, 12.5 and 0 S-F units/mi. Samples were diluted 1:5, 1:25 and 1:125 by adding 25 μl of serum to 100 μl of H2 O and serially diluting 25 μl into 100 μl two more times. Then 100 μl of the Sigma substrate were added to each tube along with 20 μl of each diluted sample and enzyme standard. The tube was incubated in a 37° C. bath with gentle shaking for 1 hour. To that was added […] of colorizing reagent and the tube was left to stand for 30 minutes. Then 500 μl of 0.8N NaOH solution were added, the tubes were capped and inverted to mix thoroughly. A 150 μl aliquot of each sample and 150 μl of the standard were added to wells of a 96-well plate and color formation was monitored at 490 nm. The amounts of SGOT were calculated using a standard curve, converted to Sigma-Frankel units/ml.

[2] = tested on: Concanavalin A (ConA)-induced liver injury; test: as above; format: in vivo, C57BL/6 mice; conditions: Mus musculus, ip; 20 mg/kg i.p.; ConA 15 mg/kg i.v., 17 hours; read-out: SGOT (% decrease)

`CCCCc1nnc([S+]([O-])Cc2ncc(C)c(OC)c2C)o1` (centres unmarked) [Compound 81] gave an inhibition at 3 µg/mL (VCAM) of 20%.

For `COc1c(C)cnc(C[S+]([O-])c2nnc(-c3ccccc3)o2)c1C` (centres unmarked) [Compound 85], the inhibition in vivo at 12.5 mg/site (Neutrophil migration) was 25% and the inhibition at 3 µg/mL (VCAM) was 100%.

Work on `COc1c(C)cnc(C[S+]([O-])c2nnc(-c3cccs3)o2)c1C` (centres unmarked) [Compound 89] yielded an inhibition at 1 µg/mL (ELAM) of 25%, an inhibition in vivo at 50 mg/kg [1] of 95% and an inhibition at 1 µg/mL (VCAM) of 60%.

In the case of `[O-][S+](Cc1ccccc1)c1nnc(-c2cccs2)o1` (centres unmarked) [Compound 91], the inhibition at 1 µg/mL (ELAM) is reported as 20%, the inhibition in vivo at 12.5 mg/site (Neutrophil migration) is reported as 40% and the inhibition at 1 µg/mL (VCAM) is reported as 20%.

`[O-][S+](Cc1ccccn1)c1nnc(-c2ccncc2)o1` (centres unmarked) [Compound 92] showed an inhibition in vivo at 12.5 mg/site (Neutrophil migration) of 60% and an inhibition at 3 µg/mL (VCAM) of 100%.

For `[O-][S+](Cc1ccccn1)c1nnc(-c2ccccn2)o1` (centres unmarked) [Compound 96], the inhibition at 1 µg/mL (ELAM) was 50%, the inhibition in vivo at 12.5 mg/site (Neutrophil migration) was 70% and the inhibition at 1 µg/mL (VCAM) was 50%.

For `[O-][S+](Cc1ccccc1)c1nnc(-c2ccccn2)o1` (centres unmarked) [Compound 97], the inhibition in vivo at 20 mg/kg [2] was 45%, the inhibition at 1 µg/mL (ELAM) was 50% and the inhibition in vivo at 12.5 mg/site (Neutrophil migration) was 80%. It also gave an inhibition at 1 µg/mL (VCAM) of 55%.

`[O-][S+](Cc1ccccn1)c1nnc(-c2cccnc2)o1` (centres unmarked) [Compound 100] was tested, and the inhibition in vivo at 12.5 mg/site (Neutrophil migration) was 60% and the inhibition at 3 µg/mL (VCAM) was 80%.

For `[O-][S+](Cc1ccccc1)c1nnc(-c2cccnc2)o1` (centres unmarked) [Compound 101], the inhibition at 10 µg/mL (ELAM; @ 10 μg/mL) was 75%, the inhibition in vivo at 12.5 mg/site (Neutrophil migration) was 50% and the inhibition in vivo at 50 mg/kg [1] was 68%. For the same molecule, the inhibition at 10 µg/mL (VCAM; @ 10 μg/mL) was 40%.

`[O-][S+](Cc1ccccn1)c1nnc(C23CC4CC(CC(C4)C2)C3)o1` (centres unmarked) [Compound 102] showed an inhibition in vivo at 12.5 mg/site (Neutrophil migration) of 25% and an inhibition at 3 µg/mL (VCAM) of 30%.

Work on `[O-][S+](Cc1ccccc1)c1nnc(-c2cc(-c3ccccc3)nc3ccccc23)o1` (centres unmarked) [Compound 106] yielded an inhibition at 3 µg/mL (VCAM) of 10%.

`COc1c(C)cnc(C[S+]([O-])c2nnc(-c3cccn3C)o2)c1C` (centres unmarked) [Compound 112] showed an inhibition at 1 µg/mL (ELAM) of 25% and an inhibition at 1 µg/mL (VCAM) of 65%.

`COc1c(C)cnc(C[S+]([O-])c2nnc(-c3ccccc3O)o2)c1C` (centres unmarked) [Compound 113] was tested, and the inhibition at 1 µg/mL (ELAM) was 30%, the inhibition in vivo at 12.5 mg/site (Neutrophil migration) was 20% and the inhibition in vivo at 50 mg/kg [1] was 80%. For the same molecule, the inhibition at 1 µg/mL (VCAM) was 50%.

Work on `[O-][S+](Cc1ccccc1)c1nnc(-c2ccccc2O)o1` (centres unmarked) [Compound 114] yielded an inhibition at 1 µg/mL (ELAM) of 20% and an inhibition at 1 µg/mL (VCAM) of 25%.

`COc1c(C)cnc(C[S+]([O-])c2nnc(-c3cccc(C(F)(F)F)c3)o2)c1C` (centres unmarked) [Compound 116] was tested, and the inhibition at 3 µg/mL (VCAM) was 25%.

Molecule `COc1c(C)cnc(C[S+]([O-])c2nnc(-c3ccc(C(F)(F)F)cc3)o2)c1C` (centres unmarked) [Compound 117] has an inhibition at 3 µg/mL (VCAM) of 15%.

For `[O-][S+](Cc1ccccc1)c1nnc(-c2nc(-c3ccccc3)cs2)o1` (centres unmarked) [Compound 121], the inhibition at 3 µg/mL (VCAM) was 50%.
